Paper PMC5218480 (PLoS ONE, 2017)

System: MV-4-11 cells
Assay: Gene expression microarray analysis (Affymetrix PrimeView) and GSEA
Type: cell-based, human
Design: RFU PODN (11730768_x_at) / Fold change /veh PODN (11730768_x_at) / RFU LINC00158 (11744669_a_at) / Fold change /veh LINC00158 (11744669_a_at) / RFU DUSP10 (11751237_a_at) / Fold change /veh DUSP10 (11751237_a_at) / RFU ID3 (11757404_x_at) / Fold change /veh ID3 (11757404_x_at) / RFU PLEKHG5 (11737974_s_at) / Fold change /veh PLEKHG5 (11737974_s_at) / RFU LRRC4B (11730491_at) / Fold change /veh LRRC4B (11730491_at) / RFU GIMAP4 (11747438_a_at) / Fold change /veh GIMAP4 (11747438_a_at) / RFU KRT8 (11758183_x_at) / Fold change /veh KRT8 (11758183_x_at) / RFU CNN1 (11734310_a_at) / Fold change /veh CNN1 (11734310_a_at) / RFU VPS37D (11726825_at) / Fold change /veh VPS37D (11726825_at) / RFU C10orf10 (11716522_x_at) / Fold change /veh C10orf10 (11716522_x_at) / RFU KIR2DL2 /// KIR2DL4 /// KIR2DL5A /// KIR2DL5B /// KIR2DS1 /// KIR2DS2 /// KIR2DS3 /// KIR2DS4 /// KIR3DL3 /// KIR3DL3 /// KIR3DS1 (11738374_at) / Fold change /veh KIR2DL2 /// KIR2DL4 /// KIR2DL5A /// KIR2DL5B /// KIR2DS1 /// KIR2DS2 /// KIR2DS3 /// KIR2DS4 /// KIR3DL3 /// KIR3DL3 /// KIR3DS1 (11738374_at) / RFU C1QL1 (11718748_at) / Fold change /veh C1QL1 (11718748_at) / RFU TMPRSS4 (11747572_a_at) / Fold change /veh TMPRSS4 (11747572_a_at) / RFU HAMP (11756126_x_at) / Fold change /veh HAMP (11756126_x_at) / RFU RNFT2 (11725882_a_at) / Fold change /veh RNFT2 (11725882_a_at) / RFU NR4A2 (11747474_a_at) / Fold change /veh NR4A2 (11747474_a_at) / RFU ABCC12 (11746883_a_at) / Fold change /veh ABCC12 (11746883_a_at) / RFU TMEM136 (11760407_x_at) / Fold change /veh TMEM136 (11760407_x_at) / RFU CLDN22 /// WWC2 (11732394_at) / Fold change /veh CLDN22 /// WWC2 (11732394_at) / RFU HLA-DPB1 (11760878_x_at) / Fold change /veh HLA-DPB1 (11760878_x_at) / RFU SPINT1 (11716480_a_at) / Fold change /veh SPINT1 (11716480_a_at) / RFU GAP43 (11754022_s_at) / Fold change /veh GAP43 (11754022_s_at) / RFU A4GNT (11735810_at) / Fold change /veh A4GNT (11735810_at) / RFU PRB3 (11715151_x_at) / Fold change /veh PRB3 (11715151_x_at) / RFU TUBB4B (11761932_at) / Fold change /veh TUBB4B (11761932_at) / RFU CAPN14 (11732068_a_at) / Fold change /veh CAPN14 (11732068_a_at) / RFU TMCC2 (11721928_a_at) / Fold change /veh TMCC2 (11721928_a_at) / RFU IRGQ (11745062_a_at) / Fold change /veh IRGQ (11745062_a_at) / RFU FAM174B (11720279_a_at) / Fold change /veh FAM174B (11720279_a_at) / RFU TMPRSS4 (11748680_a_at) / Fold change /veh TMPRSS4 (11748680_a_at) / RFU FAM212B (11763350_a_at) / Fold change /veh FAM212B (11763350_a_at) / RFU PLEKHG5 (11743358_a_at) / Fold change /veh PLEKHG5 (11743358_a_at) / RFU ZSCAN30 (11745921_a_at) / Fold change /veh ZSCAN30 (11745921_a_at) / RFU CMKLR1 (11741424_a_at) / Fold change /veh CMKLR1 (11741424_a_at) / RFU LOC101060620 /// MAPK8IP1 (11723275_at) / Fold change /veh LOC101060620 /// MAPK8IP1 (11723275_at) / RFU SPTSSB (11747773_x_at) / Fold change /veh SPTSSB (11747773_x_at) / RFU PRSS12 (11739890_at) / Fold change /veh PRSS12 (11739890_at) / RFU BIN1 (11741810_x_at) / Fold change /veh BIN1 (11741810_x_at) / RFU WNT11 (11732464_a_at) / Fold change /veh WNT11 (11732464_a_at) / RFU C10orf10 (11716521_a_at) / Fold change /veh C10orf10 (11716521_a_at) / RFU C5orf56 (11738089_at) / Fold change /veh C5orf56 (11738089_at) / RFU CYB561 (11721691_x_at) / Fold change /veh CYB561 (11721691_x_at) / RFU ANKRD19P (11752326_a_at) / Fold change /veh ANKRD19P (11752326_a_at) / RFU OR2T12 /// OR2T33 /// OR2T8 (11738714_s_at) / Fold change /veh OR2T12 /// OR2T33 /// OR2T8 (11738714_s_at) / RFU VCAN (11748164_a_at) / Fold change /veh VCAN (11748164_a_at) / RFU JSRP1 (11732532_at) / Fold change /veh JSRP1 (11732532_at) / RFU KRTAP10-11 (11738290_x_at) / Fold change /veh KRTAP10-11 (11738290_x_at) / RFU MYO3A (11730013_a_at) / Fold change /veh MYO3A (11730013_a_at) / RFU EBF3 (11725865_a_at) / Fold change /veh EBF3 (11725865_a_at) / RFU CAMK2N1 (11719241_x_at) / Fold change /veh CAMK2N1 (11719241_x_at) / RFU C5orf56 (11738088_a_at) / Fold change /veh C5orf56 (11738088_a_at) / RFU OLFML3 (11715873_a_at) / Fold change /veh OLFML3 (11715873_a_at) / RFU LOC100653217 /// NTM (11731650_a_at) / Fold change /veh LOC100653217 /// NTM (11731650_a_at) / RFU MAPK11 (11762145_a_at) / Fold change /veh MAPK11 (11762145_a_at) / RFU FIZ1 (11724087_x_at) / Fold change /veh FIZ1 (11724087_x_at) / RFU OASL (11726364_x_at) / Fold change /veh OASL (11726364_x_at) / RFU SOX15 (11748057_x_at) / Fold change /veh SOX15 (11748057_x_at) / RFU CD79A (11719716_a_at) / Fold change /veh CD79A (11719716_a_at) / RFU HIST1H1D (11736915_at) / Fold change /veh HIST1H1D (11736915_at) / RFU CASKIN2 (11723855_a_at) / Fold change /veh CASKIN2 (11723855_a_at) / RFU LOC730098 (11760151_x_at) / Fold change /veh LOC730098 (11760151_x_at) / RFU OR4N2 (11742367_at) / Fold change /veh OR4N2 (11742367_at) / RFU PRRT2 (11749266_a_at) / Fold change /veh PRRT2 (11749266_a_at) / RFU SNX32 (11753110_a_at) / Fold change /veh SNX32 (11753110_a_at) / RFU CDHR5 (11726645_a_at) / Fold change /veh CDHR5 (11726645_a_at) / RFU RCAN1 (11760418_a_at) / Fold change /veh RCAN1 (11760418_a_at) / RFU FAM167A (11723789_a_at) / Fold change /veh FAM167A (11723789_a_at) / RFU FAM26E (11764081_at) / Fold change /veh FAM26E (11764081_at) / RFU ISYNA1 (11749810_s_at) / Fold change /veh ISYNA1 (11749810_s_at) / RFU ACY1 (11761880_at) / Fold change /veh ACY1 (11761880_at) / RFU 11764098_at / Fold change /veh 11764098_at / RFU SAMD14 (11745864_x_at) / Fold change /veh SAMD14 (11745864_x_at) / RFU NPB (11741838_a_at) / Fold change /veh NPB (11741838_a_at) / RFU TMPRSS6 (11731388_a_at) / Fold change /veh TMPRSS6 (11731388_a_at) / RFU KRTAP10-2 (11738614_at) / Fold change /veh KRTAP10-2 (11738614_at) / RFU ARHGAP8 /// PRR5-ARHGAP8 (11727945_x_at) / Fold change /veh ARHGAP8 /// PRR5-ARHGAP8 (11727945_x_at) / RFU KRTAP5-7 /// NADSYN1 (11734609_at) / Fold change /veh KRTAP5-7 /// NADSYN1 (11734609_at) / RFU RASL12 (11751679_a_at) / Fold change /veh RASL12 (11751679_a_at) / RFU CDKN2B (11736163_a_at) / Fold change /veh CDKN2B (11736163_a_at) / RFU PRF1 (11729649_at) / Fold change /veh PRF1 (11729649_at) / RFU, ZNF638 /// ZNF638-IT1 / Fold change vs veh, ZNF638 /// ZNF638-IT1 / RFU, PANK3 / Fold change vs veh, PANK3 / RFU, SH3YL1 / Fold change vs veh, SH3YL1 / RFU, ZEB2 / Fold change vs veh, ZEB2 / RFU, NRIP1 / Fold change vs veh, NRIP1 / RFU, PTTG1IP / Fold change vs veh, PTTG1IP / RFU, CAPN2 / Fold change vs veh, CAPN2 / RFU, MED14 / Fold change vs veh, MED14 / RFU, SNORA58 / Fold change vs veh, SNORA58 / RFU, C1orf63 / Fold change vs veh, C1orf63 / RFU, LRRFIP1 / Fold change vs veh, LRRFIP1 / RFU, NDUFAF7 / Fold change vs veh, NDUFAF7 / RFU, SLC12A2 / Fold change vs veh, SLC12A2 / RFU, IBTK / Fold change vs veh, IBTK / RFU, ESF1 / Fold change vs veh, ESF1 / Fold change vs veh, TMEM50B / RFU, TAOK1 / Fold change vs veh, TAOK1 / RFU, ACBD3 / Fold change vs veh, ACBD3 / RFU, TMA16 / Fold change vs veh, TMA16 / RFU, RWDD3 / Fold change vs veh, RWDD3 / RFU, BCAT1 / Fold change vs veh, BCAT1 / RFU, EDEM3 / Fold change vs veh, EDEM3 / RFU, TMEM33 / Fold change vs veh, TMEM33 / RFU, WDR75 / Fold change vs veh, WDR75 / RFU, AHCTF1 / Fold change vs veh, AHCTF1 / RFU, TFRC / Fold change vs veh, TFRC / RFU, ZDHHC17 / Fold change vs veh, ZDHHC17 / RFU, NOM1 / Fold change vs veh, NOM1 / RFU, ARL8B / Fold change vs veh, ARL8B / RFU, ZBTB11 / Fold change vs veh, ZBTB11 / RFU, TAMM41 / Fold change vs veh, TAMM41 / RFU, KIAA1704 /// LOC100996395 / Fold change vs veh, KIAA1704 /// LOC100996395 / RFU, ING1 / Fold change vs veh, ING1 / RFU, TRMT61B / Fold change vs veh, TRMT61B / RFU, FUBP3 / Fold change vs veh, FUBP3 / RFU, TP53 / Fold change vs veh, TP53 / RFU, TNKS2 / Fold change vs veh, TNKS2 / RFU, ZFP14 / Fold change vs veh, ZFP14 / RFU, ACTR2 / Fold change vs veh, ACTR2 / RFU, PPP3R1 / Fold change vs veh, PPP3R1 / RFU, PIK3R1 / Fold change vs veh, PIK3R1 / RFU, HNRNPA1 / Fold change vs veh, HNRNPA1 / RFU, RNF170 / Fold change vs veh, RNF170 / RFU, ZNF28 / Fold change vs veh, ZNF28 / RFU, RNGTT / Fold change vs veh, RNGTT / RFU, OGT / Fold change vs veh, OGT / RFU, BRD1 / Fold change vs veh, BRD1 / RFU, MARS / Fold change vs veh, MARS / RFU, ZNF655 / Fold change vs veh, ZNF655 / RFU, FAHD1 / Fold change vs veh, FAHD1 / RFU, BDP1 / Fold change vs veh, BDP1 / RFU, LRRCC1 / Fold change vs veh, LRRCC1 / RFU, ARID1A / Fold change vs veh, ARID1A / RFU, ZNF146 / Fold change vs veh, ZNF146 / RFU, ZNF330 / Fold change vs veh, ZNF330 / RFU, GPN3 / Fold change vs veh, GPN3 / RFU, C9orf123 / Fold change vs veh, C9orf123 / RFU, N4BP2L2 / Fold change vs veh, N4BP2L2 / RFU, ARFIP1 / Fold change vs veh, ARFIP1 / RFU, FAM179B / Fold change vs veh, FAM179B / RFU, BCL10 / Fold change vs veh, BCL10 / RFU, UHRF1BP1L / Fold change vs veh, UHRF1BP1L / RFU, BET1 / Fold change vs veh, BET1 / RFU, CNOT2 / Fold change vs veh, CNOT2 / RFU, ZNF268 / Fold change vs veh, ZNF268 / Fold change vs veh, ZNF507 / RFU, DGCR2 / Fold change vs veh, DGCR2 / RFU, WDSUB1 / Fold change vs veh, WDSUB1 / Fold change vs veh, HSP90B1 /// MIR3652 / RFU, ADSS / Fold change vs veh, ADSS / RFU, GK / Fold change vs veh, GK / RFU, ZNF148 / Fold change vs veh, ZNF148 / RFU, TAF9 / Fold change vs veh, TAF9 / RFU, SLC1A5 / Fold change vs veh, SLC1A5 / RFU, SLMO2 / Fold change vs veh, SLMO2 / RFU, ABCC4 / Fold change vs veh, ABCC4 / RFU, LOC101060439 /// RAP1B / Fold change vs veh, LOC101060439 /// RAP1B / RFU, RFX7 / Fold change vs veh, RFX7 / RFU, GTPBP10 / Fold change vs veh, GTPBP10 / RFU, CNEP1R1 / Fold change vs veh, CNEP1R1 / RFU, BIVM-ERCC5 /// ERCC5 / Fold change vs veh, BIVM-ERCC5 /// ERCC5 / RFU, ILF3 / Fold change vs veh, ILF3 / RFU 11762660_at / Fold change /veh 11762660_at / RFU VCAN (11757783_s_at) / Fold change /veh VCAN (11757783_s_at) / RFU DDX43 (11728927_at) / Fold change /veh DDX43 (11728927_at) / RFU KRT8 (11758188_x_at) / Fold change /veh KRT8 (11758188_x_at) / RFU NKD1 (11759106_at) / Fold change /veh NKD1 (11759106_at) / RFU SRD5A1 (11742802_a_at) / Fold change /veh SRD5A1 (11742802_a_at) / RFU TPSAB1 /// TPSB2 (11721975_s_at) / Fold change /veh TPSAB1 /// TPSB2 (11721975_s_at) / RFU GSTM3 (11746129_a_at) / Fold change /veh GSTM3 (11746129_a_at) / RFU IL23R (11737362_x_at) / Fold change /veh IL23R (11737362_x_at) / RFU TMEM51 (11727254_a_at) / Fold change /veh TMEM51 (11727254_a_at) / RFU PIWIL2 (11732686_x_at) / Fold change /veh PIWIL2 (11732686_x_at) / RFU ORM1 (11744905_x_at) / Fold change /veh ORM1 (11744905_x_at) / RFU CCDC152 (11743942_at) / Fold change /veh CCDC152 (11743942_at) / RFU ECM1 (11717891_a_at) / Fold change /veh ECM1 (11717891_a_at) / RFU IL23R (11748794_a_at) / Fold change /veh IL23R (11748794_a_at) / RFU TNFAIP8L3 (11732012_x_at) / Fold change /veh TNFAIP8L3 (11732012_x_at) / RFU MBOAT4 (11741988_at) / Fold change /veh MBOAT4 (11741988_at) / RFU 11764193_at / Fold change /veh 11764193_at / RFU TMEM53 (11763286_at) / Fold change /veh TMEM53 (11763286_at) / RFU MAGEB2 (11727129_at) / Fold change /veh MAGEB2 (11727129_at) / RFU TMEM200A (11744735_a_at) / Fold change /veh TMEM200A (11744735_a_at) / RFU CCDC152 (11751479_a_at) / Fold change /veh CCDC152 (11751479_a_at) / RFU FAM211A (11726209_a_at) / Fold change /veh FAM211A (11726209_a_at) / RFU RGS16 (11746705_a_at) / Fold change /veh RGS16 (11746705_a_at) / RFU VCAN (11755009_s_at) / Fold change /veh VCAN (11755009_s_at) / RFU RHOB (11743442_s_at) / Fold change /veh RHOB (11743442_s_at) / RFU RGS16 (11720943_a_at) / Fold change /veh RGS16 (11720943_a_at) / RFU RGS16 (11720944_at) / Fold change /veh RGS16 (11720944_at) / RFU, VPS4B / Fold change vs veh, VPS4B / RFU, CREB1 / Fold change vs veh, CREB1 / RFU, DNAJC13 / Fold change vs veh, DNAJC13 / RFU, GNAQ / Fold change vs veh, GNAQ / RFU, CDK5R1 / Fold change vs veh, CDK5R1 / RFU, ZRANB3 / Fold change vs veh, ZRANB3 / RFU, CUL4A / Fold change vs veh, CUL4A / RFU, CCNY / Fold change vs veh, CCNY / RFU, UFL1 / Fold change vs veh, UFL1 / RFU, COG3 / Fold change vs veh, COG3 / RFU, DIAPH2 / Fold change vs veh, DIAPH2 / RFU, SKA2 / Fold change vs veh, SKA2 / RFU, AFF3 / Fold change vs veh, AFF3 / RFU, LMF1 / Fold change vs veh, LMF1 / RFU, IPO11 / Fold change vs veh, IPO11 / RFU, DFFB / Fold change vs veh, DFFB / RFU, FOXP1 / Fold change vs veh, FOXP1 / RFU, CARD8 / Fold change vs veh, CARD8 / RFU, STRN3 / Fold change vs veh, STRN3 / RFU, ADK / Fold change vs veh, ADK / RFU, RASSF2 / Fold change vs veh, RASSF2 / RFU, WIPF1 / Fold change vs veh, WIPF1 / RFU, LARP1B / Fold change vs veh, LARP1B / RFU, RASA1 / Fold change vs veh, RASA1 / RFU, RB1 / Fold change vs veh, RB1 / RFU, PPFIA1 / Fold change vs veh, PPFIA1 / RFU, MAT2A / Fold change vs veh, MAT2A / RFU, CCT5 / Fold change vs veh, CCT5 / RFU, WDR92 / Fold change vs veh, WDR92 / RFU, CUX1 / Fold change vs veh, CUX1 / RFU, TTC7A / Fold change vs veh, TTC7A / RFU, TMEM135 / Fold change vs veh, TMEM135 / RFU, DEPTOR / Fold change vs veh, DEPTOR / RFU, CPM / Fold change vs veh, CPM / RFU, DNAJB6 / Fold change vs veh, DNAJB6 / RFU, CACNA2D3 / Fold change vs veh, CACNA2D3 / RFU, DTX4 / Fold change vs veh, DTX4 / RFU, TFCP2 / Fold change vs veh, TFCP2 / RFU, GMCL1 /// GMCL1P1 / Fold change vs veh, GMCL1 /// GMCL1P1 / RFU, AEBP2 / Fold change vs veh, AEBP2 / RFU, SNHG1 /// SNORD22 /// SNORD25 /// SNORD26 /// SNORD27 /// SNORD28 /// SNORD29 /// SNORD31 / Fold change vs veh, SNHG1 /// SNORD22 /// SNORD25 /// SNORD26 /// SNORD27 /// SNORD28 /// SNORD29 /// SNORD31 / Fold change (Aza/veh), C12orf56 (ProbeSet 11735607_a_at) / Fold change (ACY-1035/veh), C12orf56 (ProbeSet 11735607_a_at) / Fold change (Aza/veh), FGFR1OP (ProbeSet 11751329_s_at) / Fold change (ACY-1035/veh), FGFR1OP (ProbeSet 11751329_s_at) / Fold change (Aza/veh), VPS36 (ProbeSet 11739960_a_at) / Fold change (ACY-1035/veh), VPS36 (ProbeSet 11739960_a_at) / RFU SYPL1 (11715823_x_at) / Fold change /veh SYPL1 (11715823_x_at) / RFU IGFBP7 (11715501_s_at) / Fold change /veh IGFBP7 (11715501_s_at) / RFU REEP3 (11722064_at) / Fold change /veh REEP3 (11722064_at) / RFU IGLL1 (11728026_x_at) / Fold change /veh IGLL1 (11728026_x_at): dose or concentration left out as unconfirmed
Details: ProbeSet 11741311_a_at; LIST B

Nc1ccc(-c2cccs2)cc1NC(=O)c1ccc2c(c1)cc(C1CC1)n2CCN1CCOCC1 [ACY-1035]
RFU, ZNF655: 32.95 RFU
